Laboratory results: article PMC11137008, “Cryo-EM analysis reveals human SID-1 transmembrane family member 1 dynamics underlying lipid hydrolytic activity” (Communications Biology, 2024)

T1: human SIDT1 (hSIDT1) (Homo sapiens, UniProt Q9NXL6)
T1 construct: full length; expressed in Expi293F cells by baculovirus; digitonin extraction, GDN micelle; N-glycosylated homodimer
T1 sequence (Q9NXL6 20-827): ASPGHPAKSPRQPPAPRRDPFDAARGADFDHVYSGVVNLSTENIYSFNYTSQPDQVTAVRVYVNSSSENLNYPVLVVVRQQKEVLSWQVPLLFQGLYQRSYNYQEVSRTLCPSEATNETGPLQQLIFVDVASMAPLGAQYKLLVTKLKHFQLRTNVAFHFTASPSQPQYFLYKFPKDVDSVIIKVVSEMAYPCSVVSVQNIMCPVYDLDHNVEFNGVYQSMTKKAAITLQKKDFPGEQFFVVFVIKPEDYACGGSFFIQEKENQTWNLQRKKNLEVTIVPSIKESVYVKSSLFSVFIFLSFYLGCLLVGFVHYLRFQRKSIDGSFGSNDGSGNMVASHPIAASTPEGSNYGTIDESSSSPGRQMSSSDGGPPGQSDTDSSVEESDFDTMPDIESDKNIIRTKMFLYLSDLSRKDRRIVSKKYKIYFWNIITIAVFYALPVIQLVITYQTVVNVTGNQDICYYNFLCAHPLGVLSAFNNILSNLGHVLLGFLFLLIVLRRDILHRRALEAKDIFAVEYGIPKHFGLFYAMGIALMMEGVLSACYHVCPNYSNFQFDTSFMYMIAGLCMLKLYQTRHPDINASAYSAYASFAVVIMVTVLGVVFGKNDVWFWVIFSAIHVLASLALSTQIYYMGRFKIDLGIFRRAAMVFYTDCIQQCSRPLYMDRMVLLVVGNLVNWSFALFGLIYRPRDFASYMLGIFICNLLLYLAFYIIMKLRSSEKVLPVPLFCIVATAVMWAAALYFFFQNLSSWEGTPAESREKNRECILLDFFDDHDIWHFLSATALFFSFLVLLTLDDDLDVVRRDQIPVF

T2: human SIDT1 full length WT (Homo sapiens, UniProt Q9NXL6 1-827)
T2 sequence: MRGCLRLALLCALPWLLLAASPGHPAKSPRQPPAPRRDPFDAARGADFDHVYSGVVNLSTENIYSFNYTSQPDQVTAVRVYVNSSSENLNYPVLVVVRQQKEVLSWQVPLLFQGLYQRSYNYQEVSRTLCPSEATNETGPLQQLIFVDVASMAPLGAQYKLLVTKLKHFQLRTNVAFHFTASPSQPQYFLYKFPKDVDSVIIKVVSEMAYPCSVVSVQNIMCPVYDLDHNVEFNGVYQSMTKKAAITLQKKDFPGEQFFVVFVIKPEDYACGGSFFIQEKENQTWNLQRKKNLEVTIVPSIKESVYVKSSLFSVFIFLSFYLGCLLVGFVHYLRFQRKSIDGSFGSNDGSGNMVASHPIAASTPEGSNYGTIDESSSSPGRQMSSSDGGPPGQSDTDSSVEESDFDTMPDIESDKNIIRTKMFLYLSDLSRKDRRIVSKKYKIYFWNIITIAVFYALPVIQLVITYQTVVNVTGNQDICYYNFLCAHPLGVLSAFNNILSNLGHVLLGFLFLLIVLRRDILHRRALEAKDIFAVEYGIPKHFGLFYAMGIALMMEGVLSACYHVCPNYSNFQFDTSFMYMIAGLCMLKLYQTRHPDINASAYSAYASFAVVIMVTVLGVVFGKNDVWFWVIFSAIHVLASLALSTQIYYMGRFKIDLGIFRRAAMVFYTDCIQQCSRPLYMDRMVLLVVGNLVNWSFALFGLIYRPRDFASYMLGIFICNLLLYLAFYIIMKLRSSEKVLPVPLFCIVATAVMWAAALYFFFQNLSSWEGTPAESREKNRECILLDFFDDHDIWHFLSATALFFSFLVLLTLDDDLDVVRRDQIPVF


Legend:
[1] = target: T1, human SIDT1 (hSIDT1); test: TLC fluorescence ceramidase assay; assay type: biochemical; conditions: labelled compound; 10 mM methyl beta-cyclodextrin required (cholesterol depletion); pH 8.0, 0.01% GDN, 37 °C, 3 h
[2] = target: T1, human SIDT1 (hSIDT1); test: cryo-EM structure, […] A; GC/MS of purified protein; assay type: binding; conditions: endogenous, co-purified; allosteric; TM5/TM6/TM7 pocket at intracellular side; two molecules per protomer described (CLR1, CLR2); GDN, pH 6.0
[3] = target: T2, human SIDT1 full length WT; test: EMSA; pH 7.0; EMSA: 1 or 2 uM 46 bp dsRNA with 0-8 uM hSIDT1 (mutants 1-5 uM, 1 uM dsRNA, pH 5.0), 4 C, 2 h; electrophoresis in Tris-acetate buffer at pH 4.0-7.0; protein stock in 20 mM MES pH 6.0, 150 mM NaCl, 0.01% GDN; conditions: protein: recombinant; tags: C-terminal TEV site, FLAG, His10; chain copies: 2; blunt (implied by 46 bp)

Molecule | TLC fluorescence ceramidase assay [1] | further results
CCCCCCCCCCCCC/C=C/[C@@H](O)[C@H](CO)NC(=O)CCCCCCCCCCCNc1ccc([N+](=O)[O-])c2nonc12 [C12 NBD ceramide] | SIDT1 exhibited a ceramidase activity only in the presence of methyl β-cyclodextrin | –
CCCCCCCCCCCCCCC[C@@H](O)[C@H](CO)NC(=O)CCCCCCCCCCCNc1ccc([N+](=O)[O-])c2nonc12 [C12 NBD dihydroceramide] | SIDT1 also harbors a ceramidase activity to ceramide and dihydroceramide | –
CC(C)CCC[C@@H](C)[C@H]1CC[C@H]2[C@@H]3CC=C4C[C@@H](O)CC[C@]4(C)[C@H]3CC[C@]12C [cholesterol] | – | cryo-EM structure, 2.77 A; GC/MS of purified protein [2]: endogenous cholesterol is assumed to be co-purified with SIDT1
46 bp dsRNA (dsRNA) RNA 1: AUUCUGCGGAUUAUUUGGCAAAGGAAGCAUUGACACAUGCGCCAAU RNA 2: AUUGGCGCAUGUGUCAAUGCUUCCUUUGCCAAAUAAUCCGCAGAAU | – | binding result [3]: binds
